For assay [1], the system named is Human Leukocyte Lipoxygenase. As to the kind of experiment: Human Leukocyte Lipoxygenase Assay (LDA-H). The format is biochemical. Particulars: for % Inhibition (LDAH): Concentration 2.50 E -5 M; for IC50: acetone-pentane powder enzyme, 234 nm, 24° C., 5 min preincubation, read-out: Concentration (M) for 50.0 % Inhibition, IC (LDAH). In a few lines:
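Enzyme from acetone-pentane powder of human buffy-coat leukocytes, extracted in 0.1M Tris pH 7.4. Compound preincubated 5 min with enzyme, then reaction started with arachidonic or linoleic acid (100 μM or 1.0 μM) and followed at 234 nm (conjugated diene) at 24° C. IC50 is molar concentration halving control rate.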

Assay [2] has as its target T1, human leukocyte 5-lipoxygenase (Homo sapiens, UniProt P09917).
T1 construct: endogenous in cells; host or cells: intact leukocytes isolated from human blood
T1 sequence (P09917 1-674): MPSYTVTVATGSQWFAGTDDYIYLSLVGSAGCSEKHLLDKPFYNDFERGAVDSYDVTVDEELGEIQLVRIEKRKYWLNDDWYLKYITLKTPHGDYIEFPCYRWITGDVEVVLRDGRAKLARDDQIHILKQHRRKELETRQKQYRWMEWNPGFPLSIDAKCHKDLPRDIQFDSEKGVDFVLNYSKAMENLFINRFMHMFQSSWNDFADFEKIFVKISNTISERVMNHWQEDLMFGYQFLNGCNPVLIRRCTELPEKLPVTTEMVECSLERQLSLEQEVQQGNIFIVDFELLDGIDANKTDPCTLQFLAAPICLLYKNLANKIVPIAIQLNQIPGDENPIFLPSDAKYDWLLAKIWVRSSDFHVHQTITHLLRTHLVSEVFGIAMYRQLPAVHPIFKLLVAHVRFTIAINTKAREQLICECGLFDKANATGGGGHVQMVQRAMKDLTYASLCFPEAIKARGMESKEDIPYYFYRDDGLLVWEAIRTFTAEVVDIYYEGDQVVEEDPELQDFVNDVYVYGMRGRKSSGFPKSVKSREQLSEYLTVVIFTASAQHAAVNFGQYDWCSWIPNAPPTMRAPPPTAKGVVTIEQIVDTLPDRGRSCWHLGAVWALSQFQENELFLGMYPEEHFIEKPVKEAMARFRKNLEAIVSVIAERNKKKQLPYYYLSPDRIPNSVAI
As to the kind of experiment: 5-lipoxygenase inhibition in human leukocytes, 5-HETE formation (5LOA; methods 5LOA1 and 5LOA2). In kind it is cell-based. As to conditions: 5-HETE formation, human leukocytes; read-out: Concentration (M) for 50.0 % Inhibition, IC (5LOA). The text has this: To Evaluate the Effect of Each Compounds as a 5-Lipoxygenase Inhibitor in Comparison to Standard Reference Agents in Human Leukocytes (5LOA1)
The purpose of this assay is to evaluate the activity of each compound as an inhibitor of human leukocyte 5-lipoxygenase.
Arachidonic acid and calcium ionophore A23187 are obtained from Sigma (St. Louis, MO). Silica gel plates, GF are obtained from Analtech (Newark, DE). Arachidonic acid, (1-^14 C) and 5-HETE (^3 H), 5 (S)-hydroxy-6-trans,8,11,14-cis eicosatetraenoic acid, are obtained from New England Nuclear (Boston, MA). Six percent Dextran-70 in 0.9% NaCl is obtained from Cutter Labs (Berkeley, CA).
Preparation of Leukocytes
Fresh blood from normal adult men who had not received any drugs for at least the previous five days is obtained by the Community Research Clinic (WL/PD) using venipuncture and collected into heparinized vacuotainer tubes. To every 100 ml of pooled blood is added 25 ml of dextran solution (6% dextran -70 in 0.9% sodium chloride containing 3% dextrose) and this is mixed gently in a plastic cylinder. The mixture is left to stand at room temperature for at least 90 minutes. The upper layer which is rich in leukocytes and platelets is then carefully decanted into 50 ml plastic tubes and centrifuged at about 100×g for eight minutes in an IEC centrifuge and rotor number 269 (about 600 rpm). The supernatant fluid is discarded and the pellet is resuspended in 10 ml of 0.87% ammonium chloride for exactly two minutes. This procedure is to lyse completely contaminating red blood cells. Leukocytes are then separated by centrifugation for ten minutes. The pellet is washed three times by suspension in 20 ml PBS (sodium chloride, 7.1 g; Na2 HPO4, 1.15 g; KH2 PO4, 0.2 g, and KCl, 0.2 g/L) and centrifuged as before. The final pellet is suspended in PBS containing 0.87 mM CaCl2. Viability of the cells is then checked using trypan blue exclusion method and is found to be over 90%.
5-Lipoxygenase Enzyme Assay
Leukocyte cells in suspension (0.98 ml) are incubated with or without test compounds for five minutes at 37° C. in a shaking water bath. At this time a 17 μl mixture is prepared per 1 ml of cell suspension: 100 mM arachidonic acid, 1 μl, 0.05 μCi ^14 C-arachidonic acid in 5 μl; 1 mM calcium ionophore A23187, 10 μl (1). This mixture is added and the incubation continued for five minutes. The reaction is stopped by adding four volumes of absolute ethanol and the mixture is kept in ice for 30 minutes. The floculated precipitate is separated by centrifugation at about 37,000×g for 20 minutes (Beckman Instruments rotor number 40). The alcohol extract is taken to dryness under a stream of nitrogen and the residue is dissolved in 100-200 μl absolute ethanol. At the time any turbidity is removed by centrifugation. An aliquot (25-50 μl) is applied onto 20×20 cm silica gel TLC plate and developed using the following solvent system: diethyl ether, petroleum ether (2040° C.), acetic acid (50:50:1 v/v). Zones of 1 cm apart are scraped from the TLC plate and transferred to mini-vials. Methanol (0.5 ml) is added to dissolve the radioactivity adsorbed to the silica gel and scintillation fluid (H. P., Beckman), 5 ml is then added and vials are counted in a liquid scintillation counter. A sample of ^3 H-5-HETE is applied and used for the identification of the formed 5-HETE.
Total radioactivity in the test as well as the control samples are normalized and the amount of 5-HETE present is calculated accordingly.
IC50 values are defined as the concentrations of test agents which caused a 50% inhibition of the formation of 5-HETE as compared to control and are determined by inspection of the concentration-response curves.
5-Lipoxygenase Assay Using Isolated Human Leukocytes (5LOA2)
The formation of 5-HETE in human leukocytes is considered a measure of 5-lipoxygenase activity. The protocol is described in the following. […]

“And” between values parts separate entries of the source, which are not always exact repeats. Equal entries are not always repeated.

For `O=C(Nc1ccc(CCc2ccc(O)c(O)c2)cc1)C1Oc2c(n(-c3ccccc3)c3ccc(O)cc23)C1=O` (centres unmarked) [Example 163, 2H-Furo[3,2-b]indole-2-carboxamide, N-[4-[2-(3,4-dihydroxyphenyl)ethyl]phenyl]-3,4-dihydro-7-hydroxy-3-oxo-4-phenyl], the “% Inhibition (LDAH)” value in assay [1] stood at 0.0%. Also, the IC50 in assay [2] stood at 5e-07 M.
As for `O=C(Nc1ccc(CCc2ccc(O)c(O)c2)cc1)c1oc2ccccc2c1O` [Example 124, 2-Benzofurancarboxamide, N-[4-[2-(3,4-dihydroxyphenyl)ethyl]phenyl]-3-hydroxy], the IC50 in assay [1] was 6.5e-06 M; in assay [2], 4.2e-06 M.
In the case of `O=C(Nc1ccc(CCc2ccc(O)c(O)c2)cc1)c1oc2c(ccc3ccccc32)c1O` [Example 125, Naphtho[1,2-b]furan-2-carboxamide, N-[4-[2-(3,4-dihydroxyphenyl)ethyl]phenyl]-3-hydroxy], the IC50 worked out at 6.1e-06 M in assay [1] and 4.01e-06 M in assay [2].
`COc1ccc2c(c1)c1c(n2-c2ccccc2)C(=O)C(C(=O)Nc2ccc(CCc3ccc(OC)c(OC)c3)cc2)O1` (centres unmarked) [Example 158]: the IC50 in assay [2] amounted to 4.8e-06 M.
For the molecule `O=C(Nc1ccc(CCc2ccc(Cl)cc2)cc1)c1sc2ccccc2c1O` [Example 145, Benzo[b]thiophene-2-carboxamide, N-[4-[2-(4-chlorophenyl)ethyl]phenyl]-3-hydroxy], the IC50 in assay [2] was 1.21e-05 M.
Take `Cn1c2ccccc2c2oc(C(=O)Nc3ccc(CCc4ccc(O)c(O)c4)cc3)c(O)c21` [Example 159, 4H-Furo[3,2-b]indole-2-carboxamide, N-[4-[2-(3,4-Dihydroxyphenyl)ethyl]phenyl]-3-hydroxy-4-methyl]: the IC50 in assay [2] amounted to 1.18e-06 M.
As to `O=C(Nc1ccc(CCc2ccc(O)c(O)c2)cc1)C(=O)C1=C(O)c2ccccc2OC1` [Example 150], the figures for the IC50 in assay [1] and in assay [2] were 4.7e-06 M and 1.8e-06 M, respectively.
For the molecule `COc1cc(C=Cc2ccc(NC(=O)C3=C(O)c4ccccc4S(=O)(=O)N3C)cc2)ccc1O` [Example 87, 2H-1,2-Benzothiazine-3-carboxamide, 4-hydroxy-N-[4-[2-(4-hydroxy-3-methoxyphenyl)ethenyl]phenyl]-2-methyl, 1,1-dioxide], the IC50 in assay [2] worked out at 4e-07 M.
On to `COc1ccc(CCc2ccc(NC(=O)C(=O)c3oc4ccccc4c3O)cc2)cc1OC` [Example 121, 2-Benzofuranacetamide, N-[4-[2-(3,4-dimethoxyphenyl)ethyl]phenyl]-3-hydroxy-α-oxo], for which the IC50 in assay [1] was determined as 1.6e-06 M; in assay [2], 7.6e-06 M.
In the case of `COc1cc(CCc2ccc(NC(=O)C3=C(O)c4ccccc4S(=O)(=O)C3)cc2)ccc1O` [Example 70, 2H-1-Benzothiopyran-3-carboxamide, 4-hydroxy-N-[4-[2-(4-hydroxy-3-methoxyphenyl)ethyl]phenyl]-, 1,1-dioxide], in assay [2], the IC50 worked out at 5e-06 M.
In the case of `COc1ccc(CCc2ccc(NC(=O)C3Oc4cc5ccccc5cc4C3=O)cc2)cc1OC` (centres unmarked) [Example 101, Naphtho[2,3-b]furan-2-carboxamide, N-[4-[2-(3,4-dimethoxyphenyl)ethyl]phenyl]-2,3-dihydroxy-3-oxo], in assay [1], the “% Inhibition (LDAH)” value is recorded as 0.0%. Moreover, the IC50 in assay [2] worked out at 8.5e-06 M.
In the case of `O=C(Nc1ccc(CCc2ccc(O)c(O)c2)cc1)c1oc2ccc3ccccc3c2c1O` [Example 122, Naphtho[2,1-b]furan-2-carboxamide, N-[4-[2-(3,4-dihydroxyphenyl)ethyl]phenyl]-1-hydroxy-], the IC50 in assay [1] was 2.3e-06 M; in assay [2], 7.6e-07 M.
On to `O=C(Nc1ccc(CCc2ccc(O)c(O)c2)cc1)C1=C(O)c2ccccc2S(=O)(=O)C1` [Example 21, N-[4-[2-(3,4-Dihydroxyphenyl)ethyl]phenyl]-4-hydroxy-2H-1-benzothiopyran-3-carboxamide, 1,1-dioxide], for which the IC50 is 8.2e-06 M in assay [1] and 7e-07 M in assay [2].
Consider `COc1ccc(CCc2ccc(NC(=O)c3oc4c5ccccc5n(C)c4c3O)cc2)cc1OC` [Example 161, 4H-Furo[3,2-b]indole-2-carboxamide, N-[4-[2-(3,4-dimethoxyphenyl)ethyl]phenyl]-3-hydroxy-4-methyl], for which the IC50 in assay [2] amounted to 9e-06 M.
With `O=C(Nc1ccc(CCc2ccc(O)c(O)c2)cc1)C(=O)C1Oc2cc3ccccc3cc2C1=O` (centres unmarked) [Example 129], the IC50 in assay [1] stood at 1.6e-06 M; in assay [2], 5e-07 M.
With `COc1cc(CCc2ccc(NC(=O)C3Oc4ccc5ccccc5c4C3=O)cc2)ccc1O` (centres unmarked) [Example 110, Naphtho[2,1-b]furan-2-carboxamide, N-[4-[2-(4-hydroxy-3-methoxyphenyl)ethyl]phenyl]-1,2-dihydro-1-oxo], in assay [2], the IC50 was 6.04e-06 M and 6.35e-06 M.
In the case of `O=C(Nc1ccc(CCc2ccc(O)c(O)c2)cc1)C(=O)C1=C(O)c2ccccc2S(=O)(=O)C1` [Example 6, N-[4-[2-(3,4-Dihydroxyphenyl)ethyl]phenyl]-4-hydroxy-α-oxo-2H-1-benzothiopyran-3-acetamide, 1,1-dioxide], the IC50 in assay [2] is 2e-05 M and 2.1e-05 M.

These data come from patent US4868195A, “Novel enolamides, pharmaceutical compositions and methods of use thereof for activity as modulators of the arachidonic acid cascade” (Warner-Lambert Company, priority 1988, dated 1989).
